From paper PMC10799058, “Exploring the mechanism and phytochemicals in Psoraleae Fructus-induced hepatotoxicity based on RNA-seq, in vitro screening and molecular docking” (Scientific Reports, 2024)
In brackets after ≈: the same amount, converted by molar mass. Like-named read-outs stand apart in the source and are kept apart here.

What was measured:
[1] = tested on: AML-12 cells; test: High-content screening of mitotoxic endpoints (MMP by TMRM, mitochondrial superoxide by MitoSOX Red); details: 15 μmol/L, 24 h; for mitochondrial toxicity, overall ranking among 9 phytochemicals: MMP and mitochondrial superoxide taken together; for fluorescence intensity of Mitosox red (mitochondrial superoxide): versus control
Protocol: AML-12 cells were purchased from Procell (CL-0602, Wuhan, China) and cultured in cultured in DMEM/F12 medium (Gibco, Thermo Fisher Scientific, USA) with the supplement of 10% fetal bovine serum (FBS, Biological Industrials) and 1% penicillin/streptomycin (FG101-01, Transgene, China). AML-12 cells were maintained in a humidified incubator containing 5% CO2 at 37 °C.
AML-12 cells were seeded into 96-well plates and incubated at 37 °C in an atmosphere containing 5% CO2 for 12 h until they visibly reached confluence. After the cells were treated with the same concentration of each drug (15 μmol/L) for 24 h, the supernatants were removed from the cell plates and the fluorescent dyes were added. Hoechst 33,342 was applied to characterize cell counts and nuclear area. TMRM and MitoSOX™ Red were applied to characterize mitochondrial membrane potential (MMP) and mitochondrial superoxides, respectively. Then, the multi-parameter cytotoxicities were measured by a high content imaging system (Molecular Devices, Metaxpress) and subsequent data analysis was performed by Harmony 3.0 Software (Perkin Elmer, Waltham, MA, USA). Each experiment was assayed in triplicate wells and three independent replicates.

[2] = tested on: AML-12 cells; test: CCK-8 assay, toxic effects on AML-12 cells; assay type: cell-based; details: for IC50: CCK-8, treatment 24 h, read-out: IC50 toward AML12 cells
Protocol: To uncover the potential hepatotoxic components, CCK-8 assay was performed toevaluate the toxic effects of 9 chemicals in PF on AML-12 cells. With the treatment […]
AML-12 cells were seeded into 96-well plates for 24 h until they visibly reached confluence. Then, AML-12 cells were treated with different concentrations of the nine chemical compounds in PF for 24 h. The multiple concentrations of each compound […]
wells were set up for each group. After treatment, AML-12 cells were washed with PBS buffer gently and incubated with DMEM/F12 medium containing 10% CCK-8 solution for 0.5-2 h. OD value was measured with live cell imaging system (Cytation 5,BioTek, USA) at 450 nm.
Cell viability (%) = [(OD value of the experimental group − OD value of the blank group)/ (OD value of the control group − OD value of the blank group)] ×

[3] = Solubility in DMEM/F12 culture medium; details: aqueous buffer, kinetic from dmso stock

## C=C[C@@](C)(/C=C/c1ccc(O)cc1)CCC=C(C)C [bakuchiol]
[1]
  mitochondrial toxicity, overall ranking among 9 phytochemicals: most potent mitochondrial toxicities
  fluorescence intensity of Mitosox red (mitochondrial superoxide): prominently promoted
[2]; Mus musculus, AML12
  IC50: 35 µM

## CC(C)=CCc1cc2c(cc1O)O[C@H](c1ccc(O)cc1)CC2=O [bavachin, Bavachin]
[1]
  mitochondrial toxicity, overall ranking among 9 phytochemicals: most potent mitochondrial toxicities
  fluorescence intensity of Mitosox red (mitochondrial superoxide): prominently promoted
[2]; Mus musculus, AML12
  IC50: 33.2 µM

## CC(C)=CCc1c(O)ccc(C(=O)/C=C/c2ccc(O)cc2)c1O [isobavachalcone]
[1]
  mitochondrial toxicity, overall ranking among 9 phytochemicals: most potent mitochondrial toxicities
  fluorescence intensity of Mitosox red (mitochondrial superoxide): prominently promoted
[2]; Mus musculus, AML12
  IC50: 28.9 µM

## O=c1ccc2ccc3occc3c2o1 [isopsoralen]
[2]
  toxicity to AML-12 cells: no obvious toxicity
[3]
  solubility: 800 µM (≈ 149 µg/mL)

## CC(C)=CCc1cc2c(cc1O)oc(=O)c1c3ccc(O)cc3oc21 [psoralidin, Psoralidin]
[1]
  fluorescence intensity of Mitosox red (mitochondrial superoxide): prominently promoted
[2]
  IC50: 17.7 µM

## Corylin
[2]
  IC50: 34.4 µM

## bavachinin
[2]
  IC50: 60.2 µM
